Assay results as given in patent US11413278B2, “Compounds and methods for promoting stress resistance” (priority 2015, dated 2022).
Where two headings read alike, the source gives them in different places.

How the values were obtained:
C. elegans = assay type: in vivo, Caenorhabditis elegans; conditions: in vivo
In short: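 Worms treated in liquid with compounds in 96-well plates (4 wells each, FUdR to block progeny, 0.2% DMSO controls); H2O2 at 500 μM final added on day 4 of adulthood and viability scored daily.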

FOXO3 = assay: qPCR analysis of FOXO3-regulated genes; assay type: cell-based, human; conditions: for fold induction at 10 µM: Homo sapiens; for K = Sestrin induction: score
In short: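 WI-38 cells treated with compound at 10 μM for 24 h, followed by Cells-to-Ct RT-qPCR of FOXO3 target genes normalised to B2M, PPIA and GAPDH. FOXO3 or NRF2 dependence tested by prior 10 nM siRNA knockdown (36 h transfection, compound added ~24 h after replating).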

WI-38 cells [1] = assay: Propidium iodide (PI) cell-death imaging upon H2O2 stress; assay type: cell-based, human; conditions: for Assay 7: H2O2-resistant, at 10 uM, validated by propidium iodide (PI) cell-death imaging: w/H2O2, 3 hrs/4 hrs/5 hrs, YES/NO; for cytotoxicity at 10 µM: Homo sapiens, WI-38
[2] = Summary score for characterization of 38 core set hits; conditions: for D = Triple resistant: 2-point score, multiplex resistance (cadmium, MMS, H2O2); for S = Sum of Negative scores: human; for C = H2O2- & Cd-resistant: score, resistance to both H2O2 and cadmium
In short: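 Composite score. 2 pts each: multiplex stress resistance, FOXO3/NRF2 activation, mTOR down-regulation. Worm lifespan (4–6 independent trials): 0 = no obvious effect, 1 = extension in 2 trials, 2 = extension in >2 trials. −1 for DNA damage and/or cytotoxicity in cultured human cells.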

[3] = test system: human dermal fibroblast (HDF) primary cells; assay: H2O2-resistance in primary human dermal fibroblasts; assay type: cell-based; conditions: for fold induction at 10 µM: Homo sapiens; for Assay 6: H2O2-resistant, at 10 uM, human dermal fibroblast (HDF) primary cells: YES/NO
WI-38 cells [4] = conditions: for No H2O2 stress treatment, at 10 uM (fold change): normalized ATP measurement
[5] = WI-38 cells, 10 μM, 24 hrs, n=4, qPCR normalized by B2M, read-out: DDB1 Normalized fold change
[6] = WI-38 cells, 10 μM, 24 hrs, n=4, qPCR normalized by B2M, read-out: GADD45A Normalized fold change
[7] = WI-38 cells, 10 μM, 24 hrs, n=4, qPCR normalized by B2M, read-out: SESN1 Normalized fold change
[8] = qPCR, WI-38 cells, 10 μM, n=4, 24 hrs, normalized by B2M, read-out: CAT Normalized fold change
[9] = qPCR, WI-38 cells, 10 μM, n=4, 24 hrs, normalized by B2M, read-out: SOD2 Normalized fold change
[10] = qPCR, WI-38 cells, 10 μM, n=4, 24 hrs, normalized by B2M, read-out: TXNIP Normalized fold change
[11] = H2O2 3 hrs, 10 uM, n = 6, negative control 5.44% ± 0.79%, read-out: Percentage of propidium iodide-positive dead cells (under H2O2 stress treatment), 3 hrs
[12] = pre-treatment at 10 uM, 3.5 hours of H2O2, DMSO control 27.4% ± 6.5%, */**/*** = reduced by one/two/three standard deviations, read-out: Percentage of propidium iodide-positive dead cells (under H2O2 stress treatment), at 10 uM
[13] = Experiment 1, HDF cells, read-out: Experiment 1, HDF cells (under H2O2 stress treatment), at 10 uM (fold change)
[14] = Experiment 2, HDF cells, read-out: Experiment 2, HDF cells (under H2O2 stress treatment), at 10 uM (fold change)
[15] = WI-38 cells, 10 μM, (*) = compromised ability to protect cells from H2O2, could be due to stability issue
[16] = asterisks indicate the loss of the ability to protect cells from H2O2 over time
[17] = derived from dose response curves, 0.6-20 uM, H2O2-resistance of WI-38 cells
[18] = read-out: Est. ED50, dose response 0.6-20 μM, H2O2-resistance

Structure (SMILES) | L = H2O2-resistance in worms (C. elegans) | N = H2O2-resistance in woms (C. elegans) | E = Potential FOXO3 Activation (FOXO3; 2-point score) | fold induction at 10 µM (FOXO3; [5]) | fold induction at 10 µM (FOXO3; [6]) | fold induction at 10 µM (FOXO3; [7]) | fold induction at 10 µM (FOXO3; [8]) | fold induction at 10 µM (FOXO3; [9]) | fold induction at 10 µM (FOXO3; [10]) | K = Sestrin induction (FOXO3) | E = Potential FOXO3 Activation (FOXO3; summary score) | Assay 7: H2O2-resistant, at 10 uM, validated by propidium iodide (PI) cell-death imaging (WI-38 cells [1]; 10 uM) | cytotoxicity at 10 µM (WI-38 cells [1]; [11]) [%] | cytotoxicity at 10 µM (WI-38 cells [1]; [12]) [%] | D = Triple resistant [2] | S = Sum of Negative scores [2] | C = H2O2- & Cd-resistant [2] | fold induction at 10 µM [3, 13] | fold induction at 10 µM [3, 14] | Assay 6: H2O2-resistant, at 10 uM, human dermal fibroblast (HDF) primary cells [3] | further results
CCc1ccc(Oc2nc3ccccn3c(=O)c2/C=C(\C#N)C(=O)NCc2ccco2)cc1 [Gr-5B] | 0 | 0 | 0 | 1.25 | 0.808 | 1.36 | 1.42 | 1.13 | 1.2 | 0 | 0 | YES | 1.18 | 6.1 | 0 | 0 | 0 | 9.16 | 13.3 | YES | cytotoxicity at 10 µM (WI-38 cells [1]; H2O2 4 hrs, 10 uM, n = 6, negative control 16.81% ± 1.42%, read-out: Percentage of propidium iodide-positive dead cells (under H2O2 stress treatment), 4 hrs): 6.19%; H2O2-resistant (WI-38 cells [4]; [15]): YES; No H2O2 stress treatment, at 10 uM (fold change) (WI-38 cells [4]; WI-38 cells): 1.19 fold change; H2O2-resistant (WI-38 cells [4]; [16]): YES; EC50 (WI-38 cells [4]; [17]): 8.7 µM; EC50 (WI-38 cells [4]; [18]): 14.3 µM
Oc1ncnc2sc3c(c12)CCC3 [O14] | 0 | 0 | 0 | 1.08 | 1.2 | 1.14 | 1.03 | 1.27 | 1.39 | 0 | 0 | YES | 3.8 | 12.7 | 0 | 0 | 1 | 2.87 | 4.73 | YES | Induction of at least two of five FOXO3-regulated genes (SOD2, GADD45A, CAT, DDB1, TXNIP) (FOXO3; 10 μM, 24 hrs, WI-38): significant induction; fold induction at 10 µM (FOXO3; 24 h, Assay 10(m), at 10 uM, qPCR, read-out: Induction of FOXO3-regulated genes: SOD2 normalized fold-change): 1.06; fold induction at 10 µM (FOXO3; 24 h, Assay 10(m), at 10 uM, qPCR, read-out: Induction of FOXO3-regulated genes: TXNIP normalized fold-change): 1.27; fold induction at 10 µM (FOXO3; 10 μM, 24 hrs, WI-38 cells, qPCR, normalized to B2M, n = 4, read-out: TXNIP expression, normalized fold change (FOXO3-regulated gene)): 1.39; fold induction at 10 µM (FOXO3; fold change, qPCR, WI-38 cells, 10 μM, 24 hrs, read-out: Summary of effects on FOXO3-regulated genes: TXNIP): 1.39; H2O2-resistant (WI-38 cells [4]; [15]): YES; No H2O2 stress treatment, at 10 uM (fold change) (WI-38 cells [4]; WI-38 cells): 1.11 fold change; Assay 1: H2O2-resistant (WI-38 cells [4]; YES/NO, if NO, possibly due to repeated freezing/thawing of stocks): YES; H2O2-resistant (WI-38 cells [4]; [16]): YES; EC50 (WI-38 cells [4]; [17]): 12.5 µM; EC50 (WI-38 cells [4]; [18]): 12.5 µM
